Data published in patent US4122184A, “Benzimidazole insecticides” (priority 1977, dated 1978).

What was measured:
Picnic Beetle [1] = assay: Field trial (first summer), topical; type: in vivo; settings: .078125 μg/μl
In short: (§1)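 Field trial from the first summer in which 1 µl of test solution holding a set number of micrograms of benzimidazole was applied topically to larvae or adult insects. Mortality at a given route and concentration was scored on a 0–9 scale.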

Confused Flour Beetle = assay: Field trial (first summer), topical; type: in vivo
In short: as §1

Picnic Beetle [2] = assay: Field trial (first summer), stomach; type: in vivo; settings: 250 ppm
Experimental: Leaves from the infested plant are treated with different concentrations of the test compounds, either by spraying with a DeVilbiss Special Atomizer (5004) at 10 psi or by dipping the leaves in solutions containing the compound. The leaves are then allowed to air dry.
After the leaves have dryed, they are placed in plastic petri dishes (100 × 25 mm), then the insects are counted out into each dish, five or ten insects per dish depending on the number of insects available. There are one or two replicates and usually two or three rates with each compound. Mortality results are taken at 24, 48 and 72 hours. The rating scale is 0 to 9.
(§2) During the previous summer similar field trials were conducted employing the same tests as heretofore but with some additional species of insects not included in the later tests. The results listed below are for tests in which an insect mortality was established by a given application route and at a given concentration in a particular test. The same 0 - 9 scoring system is used as is the designation of compounds by alphabetical symbols.

Asparagus Beetles Adults = assay: Field trial, contact poison test; type: in vivo
In short: (§3)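 Read-out: mortality rating 0–9 (0 = 0-10 percent, 9 = 91-100 percent) at 24/48/72 h, averaged per concentration. Insects were sprayed on potted-in-water host plants using an atomizer at 10 psi, with dead insects caught on paper below.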

[3] = tested on: Potato Flea Beetle Adults; assay: Field trial, contact poison test; type: in vivo
In short: as §3

Alfalfa Weevil Larvae [4] = assay: Field trial, contact poison test; type: in vivo
In short: as §3

Armyworm, P. Unipuncta = assay: Field trial, stomach poison test; type: in vivo
In short: (§4)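 Leaves from infested plants sprayed (10 psi) or dipped in test compound at several concentrations, air-dried, then five or ten insects placed per dish, one or two replicates. Mortality scored 0 to 9 at 24, 48 and 72 h, averaged per concentration.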

Eastern Tent Caterpillar = assay: Field trial, stomach poison test; type: in vivo
In short: as §4

[5] = tested on: Red-Legged Grasshopper Adults; assay: Field trial, stomach poison test; type: in vivo
In short: as §4

Elm Leaf Beetle = assay: Field trial, stomach poison test; type: in vivo
In short: as §4

Bagworms = assay: Field trial, stomach poison test; type: in vivo
In short: as §4

Walnut Caterpillar = assay: Field trial, stomach poison test; type: in vivo
In short: as §4

Alfalfa Weevil Larvae [6] = assay: Field trial, topical application; type: in vivo
Experimental: (§5) The results are read at 24, 48, and 72 hours when applicable. The rating scale is 0 to 9 where 0 = 0-10 percent and 9 = 91-100 percent mortality.
In a variation of the above test, 1 microliter of a test solution containing a predetermined number of micrograms of benzimidazole was applied directly to larvae or adult insects.
Using the above methods, field trials were carried out against species of 5 orders of insects. The results, which are summarized in the following tables, give the average mortality for the particular insect with a given benzimidazole for each concentration employed. […] These tables contain all results obtained during the summer trials.

Differential Grasshopper = assay: Field trial (first summer), contact; type: in vivo
Description: (§6) Infested plants are placed in 6 oz. prescription bottles filled with water to keep them from wilting. Cellucotton is wrapped around the plant stem and squeezed into the bottle neck to prevent the insects from drowning.
(§7) A DeVilbiss Special Atomizer (5004) is used at 10 psi to spray the test plant with different concentrations of compounds. The atomizer is held at arm's length to prevent blowing the insects off the host plant. After treating, the bottles are placed on a table covered with brown wrapping paper to catch the dead insects as they drop from the plant. The plants are spaced so the leaves or plants are not touching one another.
as §5, §2

Meadow Grasshopper = assay: Field trial (first summer), contact; type: in vivo; settings: 125 ppm
Description: as §6, §7, §5, §2

[7] = tested on: Unidentified Green Leafhopper; assay: Field trial, stomach poison test; type: in vivo; design: key: mortality rating on a 0 to 9 scale
In short: as §4

[8] = tested on: Tarnished Plant Bug Adults; assay: Field trial, stomach poison test; type: in vivo; design: key: mortality rating on a 0 to 9 scale
In short: as §4

[9] = tested on: Two-Spotted Spider Mite (2-SSM); assay: Miticide test, acute mortality, foliar spray; type: in vivo, Tetranychus urticae
Experimental: Each 5 mg. sample of technical compound preweighed at Greenfield was dissolved in 2.5 ml. of acetone and diluted with 247.5 ml. of water containing a combination of […]
The treated cuttings were stored in the greenhouse for 24 hours before evaluation under a binocular disecting microscope in the laboratory. In evaluating the results of the miticide test, each treated cutting was removed from the test tube, observed for live and dead mites at 14 × magnification, and returned immediately to the test tube. A scale of 0-9 was used as before.
The test employing two-spotted spider mites was conducted in similar fashion except that the mites were maintained on squash seedlings or squash cuttings.

House Fly = assay: Housefly (Contact) Test; type: in vivo, Musca domestica (Diptera); settings: 24 h

O=[N+]([O-])c1cc(C(F)(F)F)cc2nc(C(F)(F)F)[nH]c12 [A, 2,6-bis(trifluoromethyl)-4-nitrobenzimidazole]
insect mortality rating (Picnic Beetle [1]): 9 (91-100 percent mortality)
insect mortality rating (Confused Flour Beetle; .078125 μg/μl): 9 (91-100 percent mortality)
insect mortality rating (Picnic Beetle [2]): 9 (91-100 percent mortality)
average mortality rating (Asparagus Beetles Adults; 10 ppm): 7
average mortality rating (Asparagus Beetles Adults; 25 ppm): 7
average mortality rating (Asparagus Beetles Adults; 50 ppm): 8
average mortality rating ([3]; 10 ppm): 9 (91-100 percent mortality)
average mortality rating ([3]; 25 ppm): 9 (91-100 percent mortality)
average mortality rating ([3]; 50 ppm): 8
average mortality rating ([3]; 100 ppm): 8
average mortality rating ([3]; 250 ppm): 9 (91-100 percent mortality)
average mortality rating (Alfalfa Weevil Larvae [4]; 500 ppm): 3
average mortality rating (Alfalfa Weevil Larvae [4]; 750 ppm): 3
average mortality rating (Alfalfa Weevil Larvae [4]; 1000 ppm): 5
average mortality rating (Armyworm, P. Unipuncta; 125 ppm): 9 (91-100 percent mortality)
average mortality rating (Armyworm, P. Unipuncta; 250 ppm): 9 (91-100 percent mortality)
average mortality rating (Armyworm, P. Unipuncta; 500 ppm): 9 (91-100 percent mortality)
average mortality rating (Eastern Tent Caterpillar; 250 ppm): 0 (0-10 percent)
average mortality rating (Eastern Tent Caterpillar; 500 ppm): 0 (0-10 percent)
average mortality rating (Eastern Tent Caterpillar; 1000 ppm): 0 (0-10 percent)
average mortality rating ([5]; 10 ppm): 0 (0-10 percent)
average mortality rating ([5]; 25 ppm): 4
average mortality rating ([5]; 50 ppm): 6
average mortality rating (Elm Leaf Beetle; 125 ppm): 3
average mortality rating (Elm Leaf Beetle; 250 ppm): 0 (0-10 percent)
average mortality rating (Elm Leaf Beetle; 500 ppm): 5
average mortality rating (Bagworms; 500 ppm): 1
average mortality rating (Bagworms; 750 ppm): 0 (0-10 percent)
average mortality rating (Bagworms; 1000 ppm): 0 (0-10 percent)
average mortality rating (Bagworms; 1500 ppm): 1
average mortality rating (Bagworms; 2500 ppm): 0 (0-10 percent)
average mortality rating (Bagworms; 5000 ppm): 1
average mortality rating (Walnut Caterpillar; 50 ppm): 1
average mortality rating (Walnut Caterpillar; 100 ppm): 3
average mortality rating (Walnut Caterpillar; 250 ppm): 3
average mortality rating (Alfalfa Weevil Larvae [6]; 0.03 μg/μl): 2
average mortality rating (Alfalfa Weevil Larvae [6]; 0.07 μg/μl): 2
average mortality rating (Alfalfa Weevil Larvae [6]; 0.1 μg/μl): 1
insect mortality rating (Differential Grasshopper; 125 ppm): 9 (91-100 percent mortality)
insect mortality rating (Meadow Grasshopper): 9 (91-100 percent mortality)
average mortality rating ([7]; 10 ppm): 4
average mortality rating ([7]; 25 ppm): 2
average mortality rating ([7]; 50 ppm): 6
average mortality rating ([8]; 10 ppm): 3
average mortality rating ([8]; 25 ppm): 1
average mortality rating ([8]; 50 ppm): 2

CCCCCCOC(=O)n1c(C(F)(F)F)nc2c([N+](=O)[O-])cc(C(F)(F)F)cc21 [E, n-hexyl 2,6-bis(trifluoromethyl)-4-nitro-1-benzimidazolecarboxylate]
acute mortality rating ([9]; 6.25 ppm): 3
acute mortality rating ([9]; 12.5 ppm): 2
acute mortality rating ([9]; 25 ppm): 5
acute mortality rating ([9]; 50 ppm): 9 (91-100 percent mortality)
acute mortality rating ([9]; 100 ppm): 9 (91-100 percent mortality)
insect mortality rating (Picnic Beetle [1]): 9 (91-100 percent mortality)
insect mortality rating (Confused Flour Beetle; .3125 μg/μl): 9 (91-100 percent mortality)
insect mortality rating (Picnic Beetle [2]): 9 (91-100 percent mortality)
average mortality rating (Asparagus Beetles Adults; 10 ppm): 7
average mortality rating (Asparagus Beetles Adults; 25 ppm): 8
average mortality rating (Asparagus Beetles Adults; 50 ppm): 9 (91-100 percent mortality)
average mortality rating ([3]; 10 ppm): 6
average mortality rating ([3]; 25 ppm): 9 (91-100 percent mortality)
average mortality rating ([3]; 50 ppm): 9 (91-100 percent mortality)
average mortality rating ([3]; 100 ppm): 9 (91-100 percent mortality)
average mortality rating ([3]; 250 ppm): 9 (91-100 percent mortality)
average mortality rating (Alfalfa Weevil Larvae [4]; 500 ppm): 4
average mortality rating (Alfalfa Weevil Larvae [4]; 750 ppm): 2
average mortality rating (Alfalfa Weevil Larvae [4]; 1000 ppm): 4
mortality rating (House Fly; 10 ppm): 4.5
mortality rating (House Fly; 50 ppm): 1.5
average mortality rating (Alfalfa Weevil Larvae [6]; 0.03 μg/μl): 2
average mortality rating (Alfalfa Weevil Larvae [6]; 0.07 μg/μl): 2
average mortality rating (Alfalfa Weevil Larvae [6]; 0.1 μg/μl): 4
insect mortality rating (Differential Grasshopper; 250 ppm): 9 (91-100 percent mortality)
insect mortality rating (Meadow Grasshopper): 9 (91-100 percent mortality)
average mortality rating ([7]; 10 ppm): 4
average mortality rating ([7]; 25 ppm): 7
average mortality rating ([7]; 50 ppm): 7
average mortality rating ([8]; 10 ppm): 1
average mortality rating ([8]; 25 ppm): 2
average mortality rating ([8]; 50 ppm): 3
